According to patent US8449898B2 (priority 2007, dated 2013):
Like-named read-outs stand apart in the source and are kept apart here.

Legend:
[1] = system: Phytophthora infestans (the causal agent of tomato late blight); experiment: whole plant or invertebrate; assay type: in vivo; conditions: for TLB Obsd (disease control rating): Table B; for TLB Obsd: component (b) alone
[2] = system: Pseudoperonospora cubensis (the causal agent of cucumber downy mildew); experiment: Test B: cucumber downy mildew, preventive spray on cucumber seedlings; assay type: in vivo; conditions: for CDM Obsd (disease control rating): Table B
[3] = Pseudoperonospora cubensis, Compound 214 alone, read-out: CDM Obsd
[4] = Pseudoperonospora cubensis, Compound 214 alone, read-out: CDM Obsd (observed effect, cucumber downy mildew)

`O=C1c2ccccc2C(=O)N1SC(Cl)(Cl)Cl` [folpet] showed a pest or weed control at 0.4 ppm ([1]; Phytophthora infestans, read-out: TLB Obsd (disease control rating), Table C, component (b) alone 0.4 ppm) of 0%, a pest or weed control at 2 ppm ([1]; Phytophthora infestans, read-out: TLB Obsd (disease control rating), Table C, component (b) alone 2 ppm) of 9% and a pest or weed control at 10 ppm ([1]; Phytophthora infestans, read-out: TLB Obsd (disease control rating), Table C, component (b) alone 10 ppm) of 9%. For the same compound, the pest or weed control at 40 ppm ([1]; Phytophthora infestans, read-out: TLB Obsd (disease control rating), Table C, component (b) alone 40 ppm) was 24%, the pest or weed control at 200 ppm ([1]; Phytophthora infestans, read-out: TLB Obsd (disease control rating), Table C, component (b) alone 200 ppm) was 75% and the pest or weed control at 0.04 ppm ([1]; Phytophthora infestans, read-out: TLB Obsd (observed effect, tomato late blight), component (b) alone, 0.04 ppm) was 0%. It also gave a pest or weed control at 2 ppm ([1]; Phytophthora infestans, read-out: TLB Obsd (observed effect, tomato late blight), component (b) alone, 2 ppm) of 8%, a pest or weed control at 10 ppm ([1]; Phytophthora infestans, read-out: TLB Obsd (observed effect, tomato late blight), component (b) alone, 10 ppm) of 31% and a pest or weed control at 40 ppm ([1]; Phytophthora infestans, read-out: TLB Obsd (observed effect, tomato late blight), component (b) alone, 40 ppm) of 46%. The pest or weed control at 200 ppm ([1]; Phytophthora infestans, read-out: TLB Obsd (observed effect, tomato late blight), component (b) alone, 200 ppm) was 93%, the pest or weed control at 0.4 ppm ([2]; Pseudoperonospora cubensis, Table C, component (b) alone 0.4 ppm, read-out: CDM Obsd (disease control rating)) was 47% and the pest or weed control at 2 ppm ([2]; Pseudoperonospora cubensis, Table C, component (b) alone 2 ppm, read-out: CDM Obsd (disease control rating)) was 47%. For the same compound, the pest or weed control at 10 ppm ([2]; Pseudoperonospora cubensis, Table C, component (b) alone 10 ppm, read-out: CDM Obsd (disease control rating)) was 47%, the pest or weed control at 40 ppm ([2]; Pseudoperonospora cubensis, Table C, component (b) alone 40 ppm, read-out: CDM Obsd (disease control rating)) was 92% and the pest or weed control at 200 ppm ([2]; Pseudoperonospora cubensis, Table C, component (b) alone 200 ppm, read-out: CDM Obsd (disease control rating)) was 95%. For the same compound, the pest or weed control at 0.4 µg/mL ([2]; Pseudoperonospora cubensis, component (b) alone 0.4 ppm (Compound 1 0 ppm), read-out: CDM Obsd) was 47%, the pest or weed control at 2 µg/mL ([2]; Pseudoperonospora cubensis, component (b) alone 2 ppm (Compound 1 0 ppm), read-out: CDM Obsd) was 47% and the pest or weed control at 10 µg/mL ([2]; Pseudoperonospora cubensis, component (b) alone 10 ppm (Compound 1 0 ppm), read-out: CDM Obsd) was 47%. The pest or weed control at 40 µg/mL ([2]; Pseudoperonospora cubensis, component (b) alone 40 ppm (Compound 1 0 ppm), read-out: CDM Obsd) was 47%, the pest or weed control at 200 µg/mL ([2]; Pseudoperonospora cubensis, component (b) alone 200 ppm (Compound 1 0 ppm), read-out: CDM Obsd) was 88% and the pest or weed control at 0.04 ppm ([2]; Pseudoperonospora cubensis, component (b) alone, 0.04 ppm, read-out: CDM Obsd (observed effect, cucumber downy mildew)) was 0%. For the same compound, the pest or weed control at 2 ppm ([2]; Pseudoperonospora cubensis, component (b) alone, 2 ppm, read-out: CDM Obsd (observed effect, cucumber downy mildew)) was 0%, the pest or weed control at 10 ppm ([2]; Pseudoperonospora cubensis, component (b) alone, 10 ppm, read-out: CDM Obsd (observed effect, cucumber downy mildew)) was 44% and the pest or weed control at 40 ppm ([2]; Pseudoperonospora cubensis, component (b) alone, 40 ppm, read-out: CDM Obsd (observed effect, cucumber downy mildew)) was 74%. It also gave a pest or weed control at 200 ppm ([2]; Pseudoperonospora cubensis, component (b) alone, 200 ppm, read-out: CDM Obsd (observed effect, cucumber downy mildew)) of 87%.

With `O=C(NCc1ncc(C(F)(F)F)cc1Cl)c1c(Cl)cccc1Cl` [fluopicolide] the “TLB Obsd (disease control rating)” value ([1]; component (b) alone 0.08 ppm) was 26%, the “TLB Obsd (disease control rating)” value ([1]; component (b) alone 0.4 ppm) was 9% and the “TLB Obsd (disease control rating)” value ([1]; component (b) alone 2 ppm) was 59%. The “TLB Obsd (disease control rating)” value ([1]; component (b) alone 10 ppm) was 100%, the “TLB Obsd (disease control rating)” value ([1]; component (b) alone 40 ppm) was 100% and the “TLB Obsd” value ([1]; 0.08 ppm) was 7%. For the same compound, the “TLB Obsd” value ([1]; 0.4 ppm) was 0%, the “TLB Obsd” value ([1]; 2 ppm) was 90% and the “TLB Obsd” value ([1]; 10 ppm) was 100%. For the same compound, the “TLB Obsd” value ([1]; 40 ppm) was 100%, the “CDM Obsd (disease control rating)” value ([2]; component (b) alone 0.08 ppm) was 47% and the “CDM Obsd (disease control rating)” value ([2]; component (b) alone 0.4 ppm) was 47%. The “CDM Obsd (disease control rating)” value ([2]; component (b) alone 2 ppm) was 94%, the “CDM Obsd (disease control rating)” value ([2]; component (b) alone 10 ppm) was 100% and the “CDM Obsd (disease control rating)” value ([2]; component (b) alone 40 ppm) was 100%. The “CDM Obsd” value ([2]; component (b) alone 0.08 ppm (Compound 1 0 ppm)) was 33%, the “CDM Obsd” value ([2]; component (b) alone 0.4 ppm (Compound 1 0 ppm)) was 79% and the “CDM Obsd” value ([2]; component (b) alone 2 ppm (Compound 1 0 ppm)) was 96%. The “CDM Obsd” value ([2]; component (b) alone 10 ppm (Compound 1 0 ppm)) was 100%, the “CDM Obsd” value ([2]; component (b) alone 40 ppm (Compound 1 0 ppm)) was 100% and the “CDM Obsd” value ([2]; component (b) alone, 0.08 ppm) was 0%. For the same compound, the “CDM Obsd” value ([2]; component (b) alone, 0.4 ppm) was 0%, the “CDM Obsd” value ([2]; component (b) alone, 2 ppm) was 83% and the “CDM Obsd” value ([2]; component (b) alone, 10 ppm) was 100%. The “CDM Obsd” value ([2]; component (b) alone, 40 ppm) was 100%.

Work on `Cc1cc(C(F)(F)F)nn1CC(=O)N1CCC(c2nc(C3=NO[C@@H](c4c(F)cccc4F)C3)cs2)CC1` [Compound 214, 1-[4-[4-[(5R)-5-(2,6-difluorophenyl)-4,5-dihydro-3-isoxazolyl]-2-thiazolyl]-1-piperidinyl]-2-[5-methyl-3-(trifluoromethyl)-1H-pyrazol-1-yl]ethanone] yielded a pest or weed control at 0.001 ppm ([1]; Phytophthora infestans, read-out: TLB Obsd (observed effect, tomato late blight), Compound 214 alone, 0.001 ppm) of 44%, a pest or weed control at 0.01 ppm ([1]; Phytophthora infestans, read-out: TLB Obsd (observed effect, tomato late blight), Compound 214 alone, 0.01 ppm) of 98% and a pest or weed control at 0.1 ppm ([1]; Phytophthora infestans, read-out: TLB Obsd (observed effect, tomato late blight), Compound 214 alone, 0.1 ppm) of 100%. It also gave a pest or weed control at 0.001 ppm ([1]; Phytophthora infestans, read-out: TLB Obsd, Compound 214 alone, 0.001 ppm) of 22%, a pest or weed control at 0.01 ppm ([1]; Phytophthora infestans, read-out: TLB Obsd, Compound 214 alone, 0.01 ppm) of 98% and a pest or weed control at 0.1 ppm ([1]; Phytophthora infestans, read-out: TLB Obsd, Compound 214 alone, 0.1 ppm) of 100%. It also gave a pest or weed control at 0.001 ppm ([2]; Pseudoperonospora cubensis, Compound 214 alone, 0.001 ppm, read-out: CDM Obsd (observed effect, cucumber downy mildew)) of 16%, a pest or weed control at 0.01 ppm [2, 3] of 88% and a pest or weed control at 0.01 ppm [2, 4] of 83%. The pest or weed control at 0.1 ppm [2, 3] was 100% and the pest or weed control at 0.1 ppm [2, 4] was 100%.
